# Measurements: US7449582B2, “Compounds and compositions as protein kinase inhibitors” (IRM LLC, priority 2003, dated 2008)
# pIC50: −log10 of the molar value.
# What was measured:
# b-Raf = b-Raf (Homo sapiens, UniProt P15056); assay: b-Raf enzyme assay; format: biochemical
# Protocol: Compounds of the invention are tested for their ability to inhibit the activity of b-Raf. The assay is carried out in 384-well MaxiSorp plates (NUNC) with black walls and clear bottom. The substrate, IκBα is diluted in DPBS (1:750) and 15 μl is added to each well. The plates are incubated at 4° C. overnight and washed 3 times with TBST (25 mM Tris, pH 8.0, 150 mM NaCl and 0.05% Tween-20) using the EMBLA plate washer. Plates are blocked by Superblock (15 μl/well) for 3 hours at room temperature, washed 3 times with TBST and pat-dried. Assay buffer containing 20 μM ATP (10 μl) is added to each well followed by 100 nl or 500 nl of compound. B-Raf is diluted in the assay buffer (1 μl into 25 μl) and 10 μl of diluted b-Raf is added to each well (0.4 μg/well). The plates are incubated at room temperature for 2.5 hours. The kinase reaction is stopped by washing the plates 6 times with TBST. Phosph-IκBα (Ser32/36) antibody is diluted in Superblock (1:10,000) and 15 μl is added to each well. The plates are incubated at 4° C. overnight and washed 6 times with TBST. AP-conjugated goat-anti-mouse IgG is diluted in Superblock (1:1,500) and 15 μl is added to each well. Plates are incubated at room temperature for 1 hour and washed 6 times with TBST. […] Plates are read on Acquest or Analyst GT using a Fluorescence Intensity Nanxin BBT anion (505 dichroic mirror).
# c-Raf [1] = target: c-Raf (Homo sapiens, UniProt P04049); assay: c-Raf enzyme assay; format: biochemical
# F317L Bcr-abl = target: T1, F317L Bcr-abl (Homo sapiens, UniProt P00519, F317L); assay: Proliferation of Ba/F3 cells expressing F317L mutant Bcr-abl; format: cell-based
# T1 construct: BCR (N-terminal fusion partner); expressed in transfected cells; host or cells: Ba/F3 (murine pro-B cells); the other entry of the earlier key: BCR (P11274, Breakpoint cluster region protein)
# Protocol: (§1) 32D-p210 cells are plated into 96 well TC plates at a density of 15,000 cells per well. 50 μL of two fold serial dilutions of the test compound (Cmax is 40 μM) are added to each well (STI571 is included as a positive control). After incubating the cells for 48 hours at 37° C., 5% CO2, 15 μL of MTT (Promega) is added to each well and the cells are incubated for an additional 5 hours. The optical density at 570 nm is quantified spectrophotometrically and IC50 values, the concentration of compound required for 50% inhibition, determined from a dose response curve.
# (§2) Compounds of the invention are tested for their antiproliferative effect on Ba/F3 cells expressing either wild type or the mutant forms of BCR-Abl (G250E, E255V, T315I, F317L, M351T) that confers resistance or diminished sensitivity to ST1571. The antiproliferative effect of these compounds on the mutant-BCR-Abl expressing cells and on the non transformed cells were tested at 10, 3.3, 1.1 and 0.37 μM as described above (in media lacking IL3). The IC50 values of the compounds lacking toxicity on the untransformed cells were determined from the dose response curves obtained as describe above.
# TrkB = target: T2, TrkB (Homo sapiens, UniProt Q16620); assay: Upstate KinaseProfiler radio-enzymatic filter binding assay, TrkB; format: biochemical; conditions: at a concentration of 10 μM; read-out: percentage inhibition
# T2 construct: purchased Upstate
# Protocol: (§3) Compounds of the invention are assessed for their ability to inhibit individual members of a panel of kinases (a partial, non-limiting list of kinases includes: Abl, BCR-Abl, CSK, JNK1, JNK2, PDGF-R, p38, p70S6K, TGFβ, SRC, EGFR, c-Kit, trkB, FGFR3, Fes, Lck, Syk, RAF, MKK4, MKK6 and SAPK2μ). The compounds are tested in duplicates at a final concentration of 10 μM following this generic protocol. Note that the kinase buffer composition and the substrates vary for the different kinases included in the “Upstate KinaseProfiler™” panel. Kinase buffer (2.5 μL, 10×—containing MnCl2 when required), active kinase (0.001-0.01 Units; 2.5 μL), specific or Poly(Glu4-Tyr) peptide (5-500 μM or 0.01 mg/ml) in kinase buffer and […] are mixed in an eppendorf on ice. […] The assay squares are transferred to a scintillation vial, 5 ml scintillation cocktail are added and ^32P incorporation (cpm) to the peptide substrate is quantified with a Beckman scintillation counter. Percentage inhibition is calculated for each reaction.
# SAPK2α = target: T3, SAPK2α (Homo sapiens, UniProt Q16539); assay: Upstate KinaseProfiler radio-enzymatic filter binding assay, SAPK2α; format: biochemical; conditions: at a concentration of 10 μM; read-out: percentage inhibition
# T3 construct: purchased Upstate
# Protocol: as §3
# Lck = target: T4, Lck (Homo sapiens, UniProt P06239); assay: Upstate KinaseProfiler radio-enzymatic filter binding assay, Lck; format: biochemical; conditions: at a concentration of 10 μM; read-out: percentage inhibition
# T4 construct: purchased Upstate
# T4 sequence (P06239 whole entry): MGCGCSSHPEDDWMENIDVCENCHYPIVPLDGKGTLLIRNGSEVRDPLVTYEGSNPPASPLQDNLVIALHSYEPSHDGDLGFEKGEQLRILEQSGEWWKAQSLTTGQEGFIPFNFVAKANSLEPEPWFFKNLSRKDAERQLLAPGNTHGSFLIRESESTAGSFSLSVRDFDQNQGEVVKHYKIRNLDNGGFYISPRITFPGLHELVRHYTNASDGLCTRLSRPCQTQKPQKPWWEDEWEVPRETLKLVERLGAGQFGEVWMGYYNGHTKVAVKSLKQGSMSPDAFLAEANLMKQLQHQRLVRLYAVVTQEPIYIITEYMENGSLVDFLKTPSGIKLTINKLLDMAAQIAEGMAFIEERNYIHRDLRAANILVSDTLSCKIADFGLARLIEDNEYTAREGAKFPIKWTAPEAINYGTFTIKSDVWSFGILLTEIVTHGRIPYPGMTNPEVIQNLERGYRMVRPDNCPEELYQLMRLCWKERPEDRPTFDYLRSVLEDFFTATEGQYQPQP
# Protocol: as §3
# M351T Bcr-abl = target: T5, M351T Bcr-abl (Homo sapiens, UniProt P00519, M351T); assay: Proliferation of Ba/F3 cells expressing M351T mutant Bcr-abl; format: cell-based
# T5 construct: BCR (N-terminal fusion partner); expressed in transfected cells; host or cells: Ba/F3 (murine pro-B cells); the other entry of the earlier key: BCR (P11274, Breakpoint cluster region protein)
# Protocol: as §1, §2
# wild type Bcr-abl = target: T6, wild type Bcr-abl (Homo sapiens, UniProt P00519); assay: Proliferation of Ba/F3 cells expressing wild type Bcr-abl; format: cell-based
# T6 construct: BCR (N-terminal fusion partner); expressed in transfected cells; host or cells: Ba/F3 (murine pro-B cells); the other entry of the earlier key: BCR (P11274, Breakpoint cluster region protein)
# Protocol: as §1, §2
# wild-type Abl = assay: Upstate KinaseProfiler radio-enzymatic filter binding assay, Abl; format: biochemical; conditions: at a concentration of 10 μM
# Protocol: as §3
# Ba/F3-TEL-FGFR3 cells = assay: FGFR3 (Cellular Assay); format: cell-based
# Protocol: Compounds of the invention are tested for their ability to inhibit transformed Ba/F3-TEL-FGFR3 cells proliferation, which is depended on FGFR3 cellular kinase activity. Ba/F3-TEL-FGFR3 are cultured up to 800,000 cells/mL in suspension, with RPMI 1640 supplemented with 10% fetal bovine serum as the culture medium. Cells are dispensed into 384-well format plate at 5000 cell/well in 50 μL culture medium. Compounds of the invention are dissolved and diluted in dimethylsufoxide (DMSO). Twelve points 1:3 serial dilutions are made into DMSO to create concentrations gradient ranging typically from 10 mM to 0.05 μM. Cells are added with 50 nL of diluted compounds and incubated for 48 hours in cell culture incubator. AlamarBlue® (TREK Diagnostic Systems), which can be used to monitor the reducing environment created by proliferating cells, are added to cells at final concentration of 10%. After additional four hours of incubation in a 37° C. cell culture incubator, fluorescence signals from reduced AlamarBlue® (Excitation at 530 nm, Emission at 580 nm) are quantified on Analyst GT (Molecular Devices Corp.). IC50 values are calculated by linear regression analysis of the percentage inhibition of each compound at 12 concentrations.
# SAPK2β = target: T7, SAPK2β (Homo sapiens, UniProt Q15759); assay: Upstate KinaseProfiler radio-enzymatic filter binding assay, SAPK2β; format: biochemical; conditions: at a concentration of 10 μM; read-out: percentage inhibition
# T7 construct: purchased Upstate
# T7 sequence (Q15759 whole entry): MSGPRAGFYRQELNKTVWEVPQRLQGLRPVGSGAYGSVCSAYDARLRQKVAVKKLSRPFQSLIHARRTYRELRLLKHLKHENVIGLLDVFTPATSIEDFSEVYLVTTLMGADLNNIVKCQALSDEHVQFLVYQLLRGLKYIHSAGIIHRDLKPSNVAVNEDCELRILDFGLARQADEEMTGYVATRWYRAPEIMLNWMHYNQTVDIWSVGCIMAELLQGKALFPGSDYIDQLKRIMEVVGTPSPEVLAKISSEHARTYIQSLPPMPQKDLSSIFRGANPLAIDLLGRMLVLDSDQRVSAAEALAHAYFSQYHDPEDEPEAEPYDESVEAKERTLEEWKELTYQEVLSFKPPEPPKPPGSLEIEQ
# Protocol: as §3
# c-Raf [2] = target: T8, c-Raf (Homo sapiens, UniProt P04049, Y340D/Y341D); assay: Upstate KinaseProfiler radio-enzymatic filter binding assay, c-RAF; format: biochemical; conditions: at a concentration of 10 μM; read-out: percentage inhibition
# T8 construct: purchased Upstate
# T8 sequence (P04049 306-648 Y340D/Y341D limits assumed): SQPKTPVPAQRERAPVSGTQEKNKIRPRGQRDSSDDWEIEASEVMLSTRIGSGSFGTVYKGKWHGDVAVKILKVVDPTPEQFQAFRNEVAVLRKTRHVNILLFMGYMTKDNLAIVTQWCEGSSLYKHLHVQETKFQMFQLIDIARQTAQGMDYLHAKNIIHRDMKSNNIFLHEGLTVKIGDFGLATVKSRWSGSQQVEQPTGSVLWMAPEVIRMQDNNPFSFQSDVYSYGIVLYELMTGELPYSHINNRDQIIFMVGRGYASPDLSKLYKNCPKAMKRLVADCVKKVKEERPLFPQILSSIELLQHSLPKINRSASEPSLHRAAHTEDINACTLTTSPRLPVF
# Protocol: as §3
# MKK6 = target: T9, MKK6 (Homo sapiens, UniProt P52564); assay: Upstate KinaseProfiler radio-enzymatic filter binding assay, MKK6; format: biochemical; conditions: at a concentration of 10 μM; read-out: percentage inhibition
# T9 construct: purchased Upstate
# T9 sequence (P52564 whole entry): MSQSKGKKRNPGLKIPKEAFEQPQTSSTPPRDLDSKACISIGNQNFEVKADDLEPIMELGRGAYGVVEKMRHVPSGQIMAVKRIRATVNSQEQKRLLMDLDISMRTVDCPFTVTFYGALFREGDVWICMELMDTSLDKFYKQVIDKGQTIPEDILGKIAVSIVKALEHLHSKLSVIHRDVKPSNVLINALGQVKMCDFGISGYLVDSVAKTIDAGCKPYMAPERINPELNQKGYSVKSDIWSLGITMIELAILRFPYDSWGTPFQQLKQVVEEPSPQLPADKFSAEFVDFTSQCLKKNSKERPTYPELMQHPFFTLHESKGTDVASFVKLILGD
# Protocol: as §3
# Bmx = target: T10, Bmx (Homo sapiens, UniProt P51813); assay: Upstate KinaseProfiler radio-enzymatic filter binding assay, Bmx; format: biochemical; conditions: at a concentration of 10 μM; read-out: percentage inhibition
# T10 construct: purchased Upstate
# T10 sequence (P51813 whole entry): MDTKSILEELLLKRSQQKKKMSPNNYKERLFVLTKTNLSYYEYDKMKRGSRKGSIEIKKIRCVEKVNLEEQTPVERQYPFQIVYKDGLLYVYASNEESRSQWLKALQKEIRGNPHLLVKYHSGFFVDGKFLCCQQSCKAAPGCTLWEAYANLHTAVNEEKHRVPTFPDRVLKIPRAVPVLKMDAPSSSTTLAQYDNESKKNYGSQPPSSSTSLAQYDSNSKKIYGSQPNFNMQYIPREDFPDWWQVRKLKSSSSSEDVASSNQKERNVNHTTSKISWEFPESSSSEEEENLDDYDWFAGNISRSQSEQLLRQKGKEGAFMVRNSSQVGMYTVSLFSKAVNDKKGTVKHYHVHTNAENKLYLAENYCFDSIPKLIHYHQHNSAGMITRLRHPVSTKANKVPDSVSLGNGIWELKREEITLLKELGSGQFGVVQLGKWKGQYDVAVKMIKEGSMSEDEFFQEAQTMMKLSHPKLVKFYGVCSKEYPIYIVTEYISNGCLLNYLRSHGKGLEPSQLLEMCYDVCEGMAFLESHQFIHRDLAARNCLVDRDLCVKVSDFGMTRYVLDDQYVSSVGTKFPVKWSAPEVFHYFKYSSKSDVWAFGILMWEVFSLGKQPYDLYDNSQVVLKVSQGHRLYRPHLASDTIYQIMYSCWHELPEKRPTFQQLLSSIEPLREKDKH
# Protocol: as §3
# FGFR3 [3] = target: T11, FGFR3 (Homo sapiens, UniProt P22607); assay: FGFR3 (Enzymatic Assay); format: biochemical; conditions: FGFR3 enzyme assay
# T11 construct: purchased Upstate
# T11 sequence (P22607 23-806): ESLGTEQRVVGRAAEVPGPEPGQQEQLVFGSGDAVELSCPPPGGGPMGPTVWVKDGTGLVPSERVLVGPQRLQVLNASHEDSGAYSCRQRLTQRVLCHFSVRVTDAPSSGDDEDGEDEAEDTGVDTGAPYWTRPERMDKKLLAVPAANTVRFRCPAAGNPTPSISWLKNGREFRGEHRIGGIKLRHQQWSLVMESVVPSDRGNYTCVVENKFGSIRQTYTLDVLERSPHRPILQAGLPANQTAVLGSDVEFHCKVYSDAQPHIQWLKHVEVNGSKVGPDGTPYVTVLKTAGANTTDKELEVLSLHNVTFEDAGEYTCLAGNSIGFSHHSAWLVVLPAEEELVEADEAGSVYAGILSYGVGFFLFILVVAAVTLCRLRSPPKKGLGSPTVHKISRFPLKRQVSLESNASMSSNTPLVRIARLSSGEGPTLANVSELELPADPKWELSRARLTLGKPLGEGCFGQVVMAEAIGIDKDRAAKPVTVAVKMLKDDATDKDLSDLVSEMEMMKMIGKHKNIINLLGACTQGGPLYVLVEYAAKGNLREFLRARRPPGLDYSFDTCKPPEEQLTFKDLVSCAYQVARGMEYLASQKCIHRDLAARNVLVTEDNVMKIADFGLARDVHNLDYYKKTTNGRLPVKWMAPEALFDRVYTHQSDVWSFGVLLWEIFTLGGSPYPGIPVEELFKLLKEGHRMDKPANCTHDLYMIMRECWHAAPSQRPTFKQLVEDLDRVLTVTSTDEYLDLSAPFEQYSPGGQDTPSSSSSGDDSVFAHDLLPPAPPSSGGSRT
# Protocol: Kinase activity assay with purified FGFR3 (Upstate) is carried out in a final volume of 10 μL containing 0.25 μg/mL of enzyme in kinase buffer (30 mM Tris-HCl pH7.5, 15 mM MgCl2, 4.5 mM MnCl2, 15 μM Na3VO4 and 50 μg/mL BSA), and substrates (5 μg/mL biotin-poly-EY(Glu, Tyr) (CIS-US, Inc.) and 3 μM ATP). Two solutions are made: the first solution of 5 μl contains the FGFR3 enzyme in kinase buffer was first dispensed into 384-format ProxiPlate® (Perkin-Elmer) followed by adding 50 nL of compounds dissolved in DMSO, then 5 μl of second solution contains the substrate (poly-EY) and ATP in kinase buffer was added to each wells. The reactions are incubated at room temperature for one hour, stopped by adding 10 μL of HTRF detection mixture, which contains 30 mM Tris-HCl pH7.5, 0.5 M KF, 50 mM ETDA, 0.2 mg/mL BSA, 15 μg/mL streptavidin-XL665 (CIS-US, Inc.) and 150 ng/mL cryptate conjugated anti-phosphotyrosine antibody (CIS-US, Inc.). After one hour of room temperature incubation to allow for streptavidin-biotin interaction, time resolved florescent signals are read on Analyst GT (Molecular Devices Corp.). IC50 values are calculated by linear regression analysis of the percentage inhibition of each compound at 12 concentrations (1:3 dilution from 50 μM to 0.28 nM).
# FGFR3 [4] = target: T11, FGFR3; assay: Upstate KinaseProfiler radio-enzymatic filter binding assay, FGFR3; format: biochemical; conditions: at a concentration of 10 μM; read-out: percentage inhibition
# Protocol: as §3
# JNK2 α2 = target: T12, JNK2 α2 (Homo sapiens, UniProt P45984); assay: Upstate KinaseProfiler radio-enzymatic filter binding assay, JNK2α2; format: biochemical; conditions: at a concentration of 10 μM; read-out: percentage inhibition
# T12 construct: purchased Upstate
# T12 sequence (P45984 whole entry): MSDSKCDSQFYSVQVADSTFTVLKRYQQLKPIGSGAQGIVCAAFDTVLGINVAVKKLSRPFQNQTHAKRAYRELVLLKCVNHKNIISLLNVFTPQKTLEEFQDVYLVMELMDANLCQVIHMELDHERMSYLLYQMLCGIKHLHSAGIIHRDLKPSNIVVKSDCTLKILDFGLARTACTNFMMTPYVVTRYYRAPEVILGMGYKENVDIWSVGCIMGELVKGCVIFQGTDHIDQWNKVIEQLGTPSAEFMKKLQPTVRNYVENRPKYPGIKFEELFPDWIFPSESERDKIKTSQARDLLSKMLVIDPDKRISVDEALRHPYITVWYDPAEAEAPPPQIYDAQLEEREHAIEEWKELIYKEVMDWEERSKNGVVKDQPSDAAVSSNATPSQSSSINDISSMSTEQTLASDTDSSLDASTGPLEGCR
# Protocol: as §3
# CSK = target: T13, CSK (Homo sapiens, UniProt P41240); assay: Upstate KinaseProfiler radio-enzymatic filter binding assay, CSK; format: biochemical; conditions: at a concentration of 10 μM; read-out: percentage inhibition
# T13 construct: purchased Upstate
# T13 sequence (P41240 whole entry): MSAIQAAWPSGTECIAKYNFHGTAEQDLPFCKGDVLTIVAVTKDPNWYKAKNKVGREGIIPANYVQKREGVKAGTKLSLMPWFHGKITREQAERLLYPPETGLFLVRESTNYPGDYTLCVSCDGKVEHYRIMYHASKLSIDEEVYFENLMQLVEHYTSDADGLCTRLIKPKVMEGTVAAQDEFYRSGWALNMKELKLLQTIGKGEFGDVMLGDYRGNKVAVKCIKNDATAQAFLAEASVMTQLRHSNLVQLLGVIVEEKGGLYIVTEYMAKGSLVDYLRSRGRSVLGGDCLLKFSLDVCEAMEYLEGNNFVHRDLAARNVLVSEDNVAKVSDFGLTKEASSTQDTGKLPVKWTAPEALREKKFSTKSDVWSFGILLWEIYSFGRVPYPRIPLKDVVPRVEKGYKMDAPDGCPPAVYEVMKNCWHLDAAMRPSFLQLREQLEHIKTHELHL
# Protocol: as §3
# MKK4 = target: T14, MKK4 (Mus musculus, UniProt P47809); assay: Upstate KinaseProfiler radio-enzymatic filter binding assay, MKK4; format: biochemical; conditions: at a concentration of 10 μM; read-out: percentage inhibition
# T14 construct: purchased Upstate
# Protocol: as §3
# T315I Bcr-abl = target: T15, T315I Bcr-abl (Homo sapiens, UniProt P00519, T315I); assay: Proliferation of Ba/F3 cells expressing T315I mutant Bcr-abl; format: cell-based
# T15 construct: BCR (N-terminal fusion partner); expressed in transfected cells; host or cells: Ba/F3 (murine pro-B cells); the other entry of the earlier key: BCR (P11274, Breakpoint cluster region protein)
# Protocol: as §1, §2
# E255V Bcr-abl = target: T16, E255V Bcr-abl (Homo sapiens, UniProt P00519, E255V); assay: Proliferation of Ba/F3 cells expressing E255V mutant Bcr-abl; format: cell-based
# T16 construct: BCR (N-terminal fusion partner); expressed in transfected cells; host or cells: Ba/F3 (murine pro-B cells); the other entry of the earlier key: BCR (P11274, Breakpoint cluster region protein)
# Protocol: as §1, §2
# p70S6K = target: T17, p70S6K (Homo sapiens, UniProt P23443); assay: Upstate KinaseProfiler radio-enzymatic filter binding assay, p70S6K; format: biochemical; conditions: at a concentration of 10 μM; read-out: percentage inhibition
# T17 construct: purchased Upstate
# T17 sequence (P23443 whole entry): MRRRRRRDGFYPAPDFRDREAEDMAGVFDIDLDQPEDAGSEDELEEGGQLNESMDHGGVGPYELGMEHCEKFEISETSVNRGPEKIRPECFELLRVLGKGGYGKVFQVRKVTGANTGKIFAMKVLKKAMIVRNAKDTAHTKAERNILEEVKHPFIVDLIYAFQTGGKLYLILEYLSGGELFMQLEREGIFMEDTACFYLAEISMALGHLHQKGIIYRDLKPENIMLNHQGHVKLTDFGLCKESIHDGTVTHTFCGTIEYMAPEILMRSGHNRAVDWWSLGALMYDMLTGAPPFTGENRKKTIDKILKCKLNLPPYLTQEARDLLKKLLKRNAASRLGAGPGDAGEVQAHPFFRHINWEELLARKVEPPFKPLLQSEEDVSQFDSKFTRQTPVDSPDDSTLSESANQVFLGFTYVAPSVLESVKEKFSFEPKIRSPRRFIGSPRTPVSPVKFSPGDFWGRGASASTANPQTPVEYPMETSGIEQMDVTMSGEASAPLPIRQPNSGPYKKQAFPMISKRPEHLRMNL
# Protocol: as §3
# G250E Bcr-abl = target: T18, G250E Bcr-abl (Homo sapiens, UniProt P00519, G250E); assay: Proliferation of Ba/F3 cells expressing G250E mutant Bcr-abl; format: cell-based
# T18 construct: BCR (N-terminal fusion partner); expressed in transfected cells; host or cells: Ba/F3 (murine pro-B cells); the other entry of the earlier key: BCR (P11274, Breakpoint cluster region protein)
# Protocol: as §1, §2
# JNK1α1 = target: T19, JNK1α1 (Homo sapiens, UniProt P45983); assay: Upstate KinaseProfiler radio-enzymatic filter binding assay, JNK1α1; format: biochemical; conditions: at a concentration of 10 μM; read-out: percentage inhibition
# T19 construct: purchased Upstate
# T19 sequence (P45983 1-384 isoform P45983-2): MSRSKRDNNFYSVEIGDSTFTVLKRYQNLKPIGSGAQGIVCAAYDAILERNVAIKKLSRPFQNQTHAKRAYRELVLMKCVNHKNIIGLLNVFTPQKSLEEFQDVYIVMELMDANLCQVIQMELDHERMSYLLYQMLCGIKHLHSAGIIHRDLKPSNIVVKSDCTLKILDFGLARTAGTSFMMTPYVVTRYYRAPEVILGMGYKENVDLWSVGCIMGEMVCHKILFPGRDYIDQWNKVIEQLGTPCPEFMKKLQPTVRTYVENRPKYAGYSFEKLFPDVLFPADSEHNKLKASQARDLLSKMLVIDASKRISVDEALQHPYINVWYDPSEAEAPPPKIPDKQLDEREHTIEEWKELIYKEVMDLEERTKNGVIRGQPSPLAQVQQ
# Protocol: as §3
smiles,measurement,setting,value
"COc1ccc(Nc2cc3c(cn2)cc(-c2cc(NC(=O)c4cccc(C(F)(F)F)c4)ccc2C)c(=O)n3C)cn1 [Example 8, N-{3-[7-(6-Methoxy-pyridin-3-ylamino)-1-methyl-2-oxo-1,2-dihydro-[1,6]naphthyridin-3-yl]-4-methyl-phenyl}-3-trifluoromethyl-benzamide]",pIC50,b-Raf,6.30
same,pIC50,c-Raf [1],7.77
same,pIC50,F317L Bcr-abl,> 9.30
same,inhibition at 10 µM,TrkB,97%
same,inhibition at 10 µM,SAPK2α,95%
same,inhibition at 10 µM,Lck,99%
same,pIC50,M351T Bcr-abl,8.05
same,pIC50,wild type Bcr-abl,> 9.30
same,percentage inhibition,wild-type Abl,100%
same,pIC50,Ba/F3-TEL-FGFR3 cells,8.52
same,inhibition at 10 µM,SAPK2β,98%
same,inhibition at 10 µM,c-Raf [2],90%
same,inhibition at 10 µM,MKK6,97%
same,inhibition at 10 µM,Bmx,100%
same,pIC50,FGFR3 [3],6.97
same,inhibition at 10 µM,FGFR3 [4],96%
same,inhibition at 10 µM,JNK2 α2,99%
same,inhibition at 10 µM,CSK,100%
same,inhibition at 10 µM,MKK4,91%
same,pIC50,T315I Bcr-abl,6.91
same,pIC50,E255V Bcr-abl,7.32
same,inhibition at 10 µM,p70S6K,86%
same,pIC50,G250E Bcr-abl,7.37
same,inhibition at 10 µM,JNK1α1,89%
